“Also recorded” adds a separate entry of the source. Where a name gives a salt, the structure may show the parent alone. Read-outs that look alike come from different tables or passages of the source.
Legend:
Assay type in all cases: cell-based
[1] = target: T1, cholera toxin subunit B (CTB) (Vibrio cholerae serotype O1, UniProt P01556)
[2] = target: T1, cholera toxin subunit B (CTB); assay: cell-based
[3] = target: T2, Aleuria aurantia lectin (AAL) (Aleuria aurantia, UniProt P18891)
T2 sequence (P18891 1-313): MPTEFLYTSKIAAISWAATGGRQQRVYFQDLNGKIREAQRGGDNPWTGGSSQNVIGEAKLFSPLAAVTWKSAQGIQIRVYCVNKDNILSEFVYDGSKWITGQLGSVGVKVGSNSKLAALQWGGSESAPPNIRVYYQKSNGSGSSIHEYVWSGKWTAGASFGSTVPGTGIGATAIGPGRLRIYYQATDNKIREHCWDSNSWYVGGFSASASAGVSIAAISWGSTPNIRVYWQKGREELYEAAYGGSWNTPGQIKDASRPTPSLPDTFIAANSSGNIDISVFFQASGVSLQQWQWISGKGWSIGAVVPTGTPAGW

[4] = target: T1, cholera toxin subunit B (CTB); remark: listed apart in the source
[5] = target: T3, Maackia amurensis lectin I (MAL I) (Maackia amurensis, UniProt P0DKL3)
T3 sequence (P0DKL3 30-287): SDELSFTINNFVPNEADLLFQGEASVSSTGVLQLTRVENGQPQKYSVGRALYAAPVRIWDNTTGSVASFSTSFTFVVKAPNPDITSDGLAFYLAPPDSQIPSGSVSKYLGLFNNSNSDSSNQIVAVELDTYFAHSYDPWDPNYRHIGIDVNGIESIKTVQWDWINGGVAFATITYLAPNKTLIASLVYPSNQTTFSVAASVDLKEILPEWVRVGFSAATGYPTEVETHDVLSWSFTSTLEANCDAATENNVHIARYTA

[6] = target: T2, Aleuria aurantia lectin (AAL); remark: listed apart in the source
[7] = target: Sambucus nigra lectin (SNA) (Sambucus nigra, UniProt Q41358)
Sequence of Sambucus nigra lectin (SNA) (Q41358 309-570 limits assumed): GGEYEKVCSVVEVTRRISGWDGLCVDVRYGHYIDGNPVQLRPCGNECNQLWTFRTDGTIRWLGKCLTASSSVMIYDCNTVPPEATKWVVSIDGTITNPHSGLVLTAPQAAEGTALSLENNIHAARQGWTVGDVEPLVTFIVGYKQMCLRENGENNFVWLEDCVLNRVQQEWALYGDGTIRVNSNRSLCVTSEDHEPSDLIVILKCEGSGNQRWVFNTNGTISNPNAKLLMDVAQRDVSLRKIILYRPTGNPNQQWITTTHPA
Sequence of Sambucus nigra lectin (SNA) (Q41358 29-292 partner limits assumed): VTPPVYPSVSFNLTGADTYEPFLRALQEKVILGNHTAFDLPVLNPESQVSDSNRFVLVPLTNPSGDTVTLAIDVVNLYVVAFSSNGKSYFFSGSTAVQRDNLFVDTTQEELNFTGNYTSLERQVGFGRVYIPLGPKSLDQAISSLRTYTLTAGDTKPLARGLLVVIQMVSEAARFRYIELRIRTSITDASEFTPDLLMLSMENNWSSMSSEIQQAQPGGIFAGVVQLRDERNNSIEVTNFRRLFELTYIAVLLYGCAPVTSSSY

CTB = CTB (Vibrio cholerae serotype O1, UniProt P01556)
Sequence of CTB (P01556 22-124 limits assumed): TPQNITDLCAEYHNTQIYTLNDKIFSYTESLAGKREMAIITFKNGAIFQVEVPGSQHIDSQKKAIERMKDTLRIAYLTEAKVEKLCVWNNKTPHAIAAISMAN

T1 sequence (P01556 22-124 limits assumed): as above

Compound | Inhibition of CTB binding to Colo205 cells (in words) [2] | Inhibition of AAL binding to Colo205 cells (in words) [3] | Inhibition of CTB binding to T84 cells (in words) [1] | also measured
CC(=O)N[C@H]1C(O)O[C@H](CO)[C@@H](O[C@@H]2O[C@H](CO)[C@H](O)[C@H](O)[C@H]2O[C@@H]2O[C@@H](C)[C@@H](O)[C@@H](O)[C@@H]2O)[C@@H]1O[C@@H]1O[C@@H](C)[C@@H](O)[C@@H](O)[C@@H]1O (mixture of isomers) [LeY, Fucα2Galβ4[Fucα3]GlcNAc] | most potent blocker | more efficient; also recorded: capable of inhibiting | – | Inhibition of CTB binding to T84 cells, titration of inhibitor (in words) [1]: near complete inhibition; CTB binding, % of the no sugar control [2]: ~ 20%; AAL lectin retained bound to the cell surface [3]: ~ 15%; Inhibition of CTB binding to primary human jejunal epithelial cells (in words) [4]: effectively block
C[C@H](O)[C@@H](O)[C@@H](O)[C@H](F)C=O [2-deoxy-2-fluoro-L-fucose, 2-Deoxy-2-fluoro-L-fucose] | indistinguishable | – | indistinguishable | –
CC1OC(OC2C(OC3C(CO)OC(O)C(O)C3O)OC(CO)C(O)C2O)C(O)C(O)C1O (stereo not shown) [2′-FL, 2′-Fucosyllactose] | more potent inhibitor than L-fucose alone | inhibit binding | more potent inhibitor | IC50 [2]: 3 mM; Reduction of CTB binding compared to the no sugar control [2]: at least 75%; Reduction of IC50 relative to L-fucose [2]: ~ 5 fold
CC(=O)N[C@H]1[C@H]([C@H](O)[C@H](O)CO)O[C@@](O[C@H]2[C@@H](O)[C@@H](CO)O[C@@H](O[C@H]3[C@H](O)[C@@H](O)C(O)O[C@@H]3CO)[C@@H]2O)(C(=O)O)C[C@@H]1O (stereo partly shown) [3′-SL, 3′-Sialyllactose sodium salt] | no inhibition | – | no inhibition | Inhibition of MAL I binding (in words) [5]: enhance the inhibitory potential of lactose
CC(=O)N[C@H]1[C@H]([C@H](O)[C@H](O)CO)O[C@@](O[C@H]2[C@@H](O)[C@@H](CO)O[C@@H](O[C@H]3[C@H](O)[C@@H](NC(C)=O)C(O)O[C@@H]3CO)[C@@H]2O)(C(=O)O)C[C@@H]1O (stereo partly shown) [3′-SLN, 3′-Sialyl-N-acetyllactosamine] | incapable of inhibiting | – | – | –
C[C@H](O)C[C@@H](O)[C@H](O)C=O [4-deoxy-fucose, 4-Deoxy-L-fucose] | complete loss in inhibitory potential | – | complete loss in inhibitory potential | –
C[C@@H](O)[C@@H](O)[C@H](O)[C@@H](O)C=O [6-deoxy-D-glucose] | only minor effects | virtually no effect | no effect | Inhibition of AAL binding to T84 cells (in words) [6]: virtually no effect
CC(=O)N[C@H]1[C@H]([C@H](O)[C@H](O)CO)O[C@@](OC[C@H]2O[C@@H](O[C@H]3[C@H](O)[C@@H](O)[C@H](O)O[C@@H]3CO)[C@H](O)[C@@H](O)[C@H]2O)(C(=O)O)C[C@@H]1O [6′-SL, 6′-Sialyllactose sodium salt] | no inhibition | – | no inhibition | Inhibition of SNA binding (in words) [7]: enhance the inhibitory potential of lactose
CC(=O)N[C@H]1[C@@H](O[C@H]2[C@@H](O)[C@@H](CO)O[C@@H](O[C@H]3[C@H](O[C@@H]4O[C@@H](C)[C@@H](O)[C@@H](O)[C@@H]4O)[C@@H](NC(C)=O)C(O)O[C@@H]3CO)[C@@H]2O[C@@H]2O[C@@H](C)[C@@H](O)[C@@H](O)[C@@H]2O)O[C@H](CO)[C@H](O)[C@@H]1O (stereo partly shown) [ALeY] | failed to produce a further increase in potency; also recorded: less effectively than LeY | – | – | –
CC(=O)NC1C(O)OC(CO)C(OC2OC(CO)C(O)C(OC3OC(CO)C(O)C(O)C3O)C2OC2OC(C)C(O)C(O)C2O)C1OC1OC(C)C(O)C(O)C1O (stereo not shown) [BLeY] | failed to produce a further increase in potency; also recorded: comparable blocking activity as LeY | – | – | –
OC1OC[C@@H](O)[C@@H](O)[C@@H]1O (stereo partly drawn) [D-arabinose, d-(−)-Arabinose] | indistinguishably from the no sugar control | effective inhibitors | indistinguishably from the no sugar control | Inhibition of AAL binding to T84 cells (in words) [6]: effective inhibitors
C[C@H]1OC(O)[C@H](O)[C@@H](O)[C@H]1O (stereo partly drawn) [D-fucose, d-(+)-Fucose] | only minor effects | virtually no effect | only a modest effect | Inhibition of AAL binding to T84 cells (in words) [6]: virtually no effect
C[C@@H]1O[C@@H](O[C@H]2[C@H](O[C@H]3[C@H](O[C@@H]4O[C@@H](C)[C@@H](O)[C@@H](O)[C@@H]4O)[C@@H](O)C(O)O[C@@H]3CO)O[C@H](CO)[C@H](O)[C@@H]2O)[C@@H](O)[C@H](O)[C@@H]1O (stereo partly shown) [DF-L, Difucosyllactose] | – | more efficient | – | Reduction of CTB binding compared to the no sugar control [2]: at least 75%
CC(=O)NC1C(O)CC(OC2C(O)C(OC3C(CO)OC(O)C(O)C3O)OC(CO)C2OC2OC(CO)C(O)C(OC3OC(CO)C(O)C(O)C3O)C2NC(C)=O)(C(=O)O)OC1C(O)C(O)CO (stereo not shown) [GM1a(os), GM1a ganglioside sugar] | – | – | – | Inhibition of CTB binding to T84 cells, titration of inhibitor (in words) [1]: could not completely inhibit CTB binding; CTB binding, % of the no sugar control [2]: ~ 5%; Fold more potent than LeY in inhibiting CTB binding [2]: approximately 2000 fold; IC50 ([2]; read-out: IC50 against CTB binding): 0.000109 ± 3.8e-05 mM
CC(=O)N[C@H]1C(O)O[C@H](CO)[C@@H](O[C@@H]2O[C@H](CO)[C@H](O)[C@H](O)[C@H]2O[C@@H]2O[C@@H](C)[C@@H](O)[C@@H](O)[C@@H]2O)[C@@H]1O (stereo partly shown) [H antigen, Blood group H antigen triaose type 2] | – | – | – | Reduction of CTB binding compared to the no sugar control [2]: at least 75%
C[C@@H]1OC(O)[C@@H](O)C[C@@H]1O (stereo partly drawn) [L-colitose] | – | – | significant loss in inhibitory potential | –
C[C@H](O)[C@@H](O)[C@@H](O)[C@H](O)C=O [L-fucose, l-(−)-Fucose] | – | effectively block | dramatically suppress; also recorded: suppression of CTB binding was observed | Inhibition of AAL binding to T84 cells (in words) [6]: effectively block; CTB binding, % of the no sugar control [2]: ~ 20%; IC50 [2]: 14.5 mM
O=C[C@@H](O)[C@H](O)[C@H](O)[C@@H](O)CO [L-galactose, L-Galactose] | modest loss in inhibition | effective inhibitors | modest loss in inhibition | Inhibition of AAL binding to T84 cells (in words) [6]: effective inhibitors
O=C[C@@H](O)[C@H](O)[C@@H](O)[C@@H](O)CO [L-glucose] | – | – | – | Inhibition of CTB binding (in words) (CTB): loss of all inhibitory activity
CC(=O)N[C@H]1C(O)O[C@H](CO)[C@@H](O[C@@H]2O[C@H](CO)[C@H](O)[C@H](O)[C@H]2O)[C@@H]1O (stereo partly drawn) [LacNAc, N-Acetyl-D-lactosamine] | – | – | – | Inhibition of CTB binding to primary human jejunal epithelial cells (in words) [4]: no inhibition
OC[C@H]1O[C@@H](O[C@H]2[C@H](O)[C@@H](O)[C@H](O)O[C@@H]2CO)[C@H](O)[C@@H](O)[C@H]1O [lactose, d-Lactose monohydrate] | – | – | did not inhibit | inhibition at 100000 µM ([2]; COLO 205, read-out: Inhibition of CTB binding): ~50%
CO[C@@H]1O[C@@H](C)[C@@H](O)[C@@H](O)[C@@H]1O [methyl α-L-fucose, Methyl a-L-fucopyranoside] | inhibited CTB binding as efficiently as L-fucose | – | suppression of CTB binding was observed | –
COC1OC(C)C(O)C(O)C1O [methyl β-L-fucose, Methyl b-L-fucopyranoside] | significantly less | – | inhibitory activity was not observed | –
CC(=O)N[C@H]1[C@H]([C@H](O)[C@H](O)CO)O[C@@](O[C@H]2[C@@H](O)[C@@H](CO)O[C@@H](O[C@@H]([C@H](O[C@@H]3O[C@@H](C)[C@@H](O)[C@@H](O)[C@@H]3O)[C@H](C=O)NC(C)=O)[C@H](O)CO)[C@@H]2O)(C(=O)O)C[C@@H]1O [sLeX, 3′-Sialyl Lewis X] | – | – | – | Inhibition of CTB binding to T84 cells, titration of inhibitor (in words) [1]: near complete inhibition; Inhibitory potential, fold less than that of LeY [2]: 2 fold; AAL lectin retained bound to the cell surface [3]: ~ 70%
Asialo-GM1-tetrasaccharide [GA1(os)] | significantly attenuated | – | – | Inhibition of CTB binding to T84 cells, titration of inhibitor (in words) [1]: no inhibition
